Results on one compound are retold here after patent US11013709B2, “Highly purified eicosapentaenoic acid, as free fatty acid, reduces fecal calprotectin levels and prevents clinical relapse in ulcerative colitis patients” (S.L.A. PHARMA AG, priority 2017, dated 2021).

The nature of series [1]: Safety and tolerability in placebo-controlled trial of UC patients. The format is in vivo, human. As to conditions: 60 patients with UC treated for 6 months. The method, then:
(§1) The present invention provides for a double-blind, randomized, placebo-controlled study with UC patients with fecal calprotectin level ≥150 μg/g and in stable therapy for at least the 3 previous months. Each subject, receives either 2 grams daily of EPA-FFA (2 dosages of 500 mg sustained-release capsules, twice a day) or placebo (2 dosages of 500 mg sustained-release capsules of capric and caprylic acids, twice daily) for a 6 month period. At baseline, the patients undergo a total colonoscopy. Fecal calprotectin levels, clinical and laboratory assessments are performed at baseline, 3 and 6 months or at the time of clinical relapse, which has been defined as the occurrence of symptoms accompanied by an increase in the partial Mayo score ≥2 and/or requiring a change in therapy.
Patients who satisfied the inclusion criteria undergo blood tests, including C-reactive protein (CRP) (normal upper limit 5 mg/L) and a total colonoscopy with multiple biopsies at baseline. They are then randomized 1:1 to receive either 2 g daily of EPA-FFA (2×500 mg gastro-resistant sustained-release capsules, twice-daily) or 2 g of placebo (2×500 mg gastro-resistant sustained-release capsules of capric and caprylic acids that are triglycerides of the fractionated plant fatty acids, twice-daily) for a 6-month period. The entire study team are blinded to the treatment assignment.

For another series, the system named is fecal calprotectin (FC). In words: Double-blind, randomized, placebo-controlled study in UC patients: fecal calprotectin level (ELISA, Calprest). The format is in vivo, human. As to conditions: over a six month period of administering highly purified EPA-FFA. As for the experimental part: as §1, with “therapy. […]” for “therapy.”
The primary endpoint is the proportion of patients achieving a 100-point reduction (100 μg/g or greater) from baseline in FC level at 6 months. […] A combined endpoint consisting of the number of patients achieving the primary and secondary endpoints is also calculated. […]
A fecal sample from the first bowel movement in the morning is stored in a refrigerator at 2-8° C. for a maximum of 24 h before performing the analysis. Quantification of FC levels is carried out using a quantitative, enzyme-linked immunosorbent assay (Calprest; Eurospital, Trieste, Italy), according to the manufacturers' instructions. […]

The conditions of series [2]: cited from earlier work.

SMILES strings stand for the structures.

For `CC/C=C\C/C=C\C/C=C\C/C=C\C/C=C\CCCC(=O)O` [EPA-FFA, eicosapentaenoic acid], the serious adverse events result in series [1] is “no serious adverse events”. Further, in the series with fecal calprotectin (FC), the “reduction of FC” value is reported as “at least 100 μg/g”. Also, the “incorporation of EPA into plasma phospholipids and red blood cell membranes” value in series [2] (2 g daily for 8 weeks, patients with IBD and healthy volunteers) was “consistently incorporated into plasma phospholipids and red blood cell membranes”. For the same compound, the metabolic conversion entry in series [2] is given as “quickly converted into docosahexaenoic acid via docosapentaenoic acid”.
